Assay results published in patent publication US9155714B2, “Compositions comprising an aromatic alcohol and a TRPV-1 antagonist, and uses thereof” (JOHNSON & JOHNSON CONSUMER INC., priority 2013, dated 2015).
Where “and” joins values, the source holds several entries; their conditions need not be identical. Equal values may be shown once.

Assays:
Assay type in all cases: cell-based
[1] = biological target: T1, human vanilloid receptor-1 (TRPV-1) (Homo sapiens, UniProt Q8NER1); experiment: Calcium Flux Test, phenoxyethanol replaced with capsaicin (capsaicin-induced calcium flux); conditions: capsaicin 300 nM
T1 construct: host or cells: HEK293
T1 sequence (Q8NER1 whole entry): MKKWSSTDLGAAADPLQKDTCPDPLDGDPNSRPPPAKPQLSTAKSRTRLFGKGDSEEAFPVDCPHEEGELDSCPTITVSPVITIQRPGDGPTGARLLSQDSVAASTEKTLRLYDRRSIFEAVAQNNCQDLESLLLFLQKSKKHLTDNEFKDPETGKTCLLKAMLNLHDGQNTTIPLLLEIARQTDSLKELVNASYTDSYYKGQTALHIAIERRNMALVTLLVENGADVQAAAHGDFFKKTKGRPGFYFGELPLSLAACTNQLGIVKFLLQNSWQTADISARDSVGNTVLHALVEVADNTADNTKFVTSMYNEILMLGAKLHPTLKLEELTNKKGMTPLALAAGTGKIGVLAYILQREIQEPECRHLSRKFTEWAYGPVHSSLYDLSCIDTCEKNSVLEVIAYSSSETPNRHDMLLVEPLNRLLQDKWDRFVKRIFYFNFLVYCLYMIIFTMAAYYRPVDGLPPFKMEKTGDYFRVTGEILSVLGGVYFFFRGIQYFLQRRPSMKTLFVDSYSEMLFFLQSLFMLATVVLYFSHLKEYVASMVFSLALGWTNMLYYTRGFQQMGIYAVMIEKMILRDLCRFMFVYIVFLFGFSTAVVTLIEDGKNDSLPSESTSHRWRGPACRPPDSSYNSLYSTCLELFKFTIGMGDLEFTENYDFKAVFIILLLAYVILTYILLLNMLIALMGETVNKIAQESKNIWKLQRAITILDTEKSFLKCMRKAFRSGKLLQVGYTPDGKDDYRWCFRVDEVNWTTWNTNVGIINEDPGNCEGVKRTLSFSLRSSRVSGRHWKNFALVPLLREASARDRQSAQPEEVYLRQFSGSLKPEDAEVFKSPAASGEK
Method: (§1) The Calcium Flux Test is performed in the following manner: Recombinant HEK293 cells expressing human vanilloid receptor-1 (TRPV-1; accession number AF196175, EMD Millipore, Billerica, Mass.) are grown in D-MEM/F-12 media (Life Technologies, Grand Island, N.Y.) supplemented with 10% fetal bovine serum, 1% non essential amino acids and 400 μg/mL Geneticin (Gibco, Life Technologies). Cells are plated at a concentration of 15,000 cells per well on poly-D-lysine-coated 384 well plates and incubated overnight at 5% CO2 and 37° C. After incubation, culture media is removed from the wells and replaced with 50 μL per well of Fluo-8 No Wash dye solution (#36315, AAT Bioquest, Sunnyvale, Calif.). The Fluo-8 dye solution is prepared by mixing 20 uL of Fluo-8 NW with 30 mL of 0.33× Pluronic® F127 Plus (BASF of Ludwigshafen, Germany) in assay buffer (1×HBSS+2% of HEPES). Fluo-8 dye is incubated for 30 minutes at room temperature. Intracellular calcium (Ca^2+) flux is monitored upon exposure to aromatic alcohol in DMSO vehicle by measuring fluorescence intensity at Ex/Em 490/525 on a Functional Drug Screening System (FDSS; Hamamatsu, […]). Measurements are taken every second for a period of 4 minutes. […] Statistical differences are obtained using One Way ANOVA with Tukey Post-hoc test; statistical significance is defined as P≦0.05.
(§2) The Maximum RFU obtained with a given concentration of aromatic alcohol is compared with the Maximum RFU obtained using the same concentration of aromatic alcohol but pretreated with the TRPV-1 antagonist for 5 minutes after dye incubation. Percent inhibition achieved with the TRPV-1 antagonist is calculated as: 100*((Maximum RFU of aromatic alcohol−Maximum RFU of aromatic alcohol pretreated with TRPV-1 antagonist)/Maximum RFU of aromatic alcohol).
(§3) Capsazepine and AMG9810 were tested for activity as TRPV-1 antagonists using the Calcium Flux Test using two different concentrations of phenoxyethanol in DMSO. They were also tested using the Calcium Flux Test in which phenoxyethanol was replaced with capsaicin. […]

[2] = biological target: T1, human vanilloid receptor-1 (TRPV-1); experiment: Calcium Flux Test, inhibition of phenoxyethanol-induced calcium flux; conditions: for reducing phenoxyethanol-induced calcium flux (result in words): TRPV-1-expressing HEK293 cells
Method: as §1, §2, §3

[3] = biological target: T1, human vanilloid receptor-1 (TRPV-1); experiment: Calcium Flux Test, activity as TRPV-1 agonist
Method: as §1
(§4) Phenoxyethanol was tested at a series of concentrations in DMSO for activity as a TRPV-1 agonist according to the Calcium Flux Test described above. Capsaicin was used as a positive control.
(§5) Maximum RFU values for treatment with phenoxyethanol or capsaisin were compared to the Maximum RFU for a DMSO vehicle alone. Concentrations of phenoxyethanol and capsaicin are reported in milimolar (mM) and nanomolar (nM), respectively.
(§6) Benzyl alcohol and sodium bicarbonate were tested using the Calcium Flux Test.
(§7) Benzyl alcohol and phenethyl alcohol were tested at a series of concentrations in DMSO for activity as a TRPV-1 agonist as described in Example 1. Concentrations of benzyl alcohol and phenethyl alcohol are reported in units of % w/v.

[4] = biological target: T1, human vanilloid receptor-1 (TRPV-1); experiment: Calcium Flux Test, activity as TRPV-1 agonist; parameters: key: **: Statistically significant; n/s: Not statistically significant
Method: as §1, §4, §5, §6, §7

[5] = compound 25 μM, phenoxyethanol 2 mM
[6] = compound 25 μM, phenoxyethanol 3 mM
[7] = compound 100 μM, phenoxyethanol 2 mM
[8] = compound 100 μM, phenoxyethanol 3 mM

C[C@]12CCC(=O)C=C1CC[C@@H]1[C@@H]2[C@@H](O)C[C@@]2(C)[C@H]1CC[C@]2(O)C(=O)CO [Hydrocortisone, hydrocortisone]
Maximum RFU (mean ± SD) ([1]; compound 25 μM): 950.97 ± 49.52 RFU
Maximum RFU (mean ± SD) ([1]; compound 100 μM): 963.83 ± 65.21 RFU
reducing phenoxyethanol-induced calcium flux (result in words) [2]: none of hydrocortisone, diphenhydramine or lidocaine were effective
Maximum RFU (mean ± SD) [2, 5]: 171.65 ± 83.27 RFU
Maximum RFU (mean ± SD) [2, 6]: 309.90 ± 40.00 RFU
Maximum RFU (mean ± SD) [2, 7]: 160.66 ± 30.14 RFU
Maximum RFU (mean ± SD) [2, 8]: 225.19 ± 38.09 RFU

CCN(CC)CC(=O)Nc1c(C)cccc1C [Lidocaine, lidocaine]
reducing phenoxyethanol-induced calcium flux (result in words) [2]: none of hydrocortisone, diphenhydramine or lidocaine were effective
Maximum RFU (mean ± SD) [2, 5]: 124.96 ± 22.24 RFU
Maximum RFU (mean ± SD) [2, 6]: 197.45 ± 41.14 RFU
Maximum RFU (mean ± SD) [2, 7]: 116.25 ± 25.92 RFU
Maximum RFU (mean ± SD) [2, 8]: 205.92 ± 16.97 RFU

OCCc1ccccc1 [Phenethyl Alcohol, phenethyl alcohol]
intracellular calcium flux in TRPV-1-transfected HEK cells (result in words) [3]: dose dependent increases
Maximum RFU ([3]; phenethyl alcohol 0.000002 % w/v alone (no antagonist)): 12.8 ± 1.35 RFU and 6.43 RFU and 12.28 ± 3.52 RFU
Maximum RFU ([3]; phenethyl alcohol 0.013 % w/v alone (no antagonist)): 185.92 ± 28.6 RFU and 123.10 RFU and 200.02 ± 6.15 RFU
Maximum RFU ([3]; phenethyl alcohol 0.04 % w/v alone (no antagonist)): 548.5 ± 37.22 RFU and 441.18 RFU and 470.23 ± 7.11 RFU
Maximum RFU ([3]; phenethyl alcohol 0.12 % w/v alone (no antagonist)): 755.2 ± 12.89 RFU and 605.31 RFU and 580.44 ± 3.06 RFU

OCCOc1ccccc1 [Phenoxyethanol, 2-phenoxy-1-ethanol]
increase in Maximum RFU values compared to the vehicle alone [3]: thirty to forty-fold
intracellular calcium flux in TRPV-1-transfected HEK cells (result in words) [3]: dose dependent increases
Maximum RFU (mean ± SD) ([3]; phenoxyethanol 0.5 mM alone): 96.96 ± 61.20 RFU
Maximum RFU (mean ± SD) ([3]; phenoxyethanol 0.75 mM alone): 124.81 ± 37.58 RFU
Maximum RFU (mean ± SD) ([3]; phenoxyethanol 1 mM alone): 200.28 ± 76.93 RFU
Maximum RFU (mean ± SD) ([3]; phenoxyethanol 1.5 mM alone): 304.41 ± 70.10 RFU
Maximum RFU (mean ± SD) ([3]; phenoxyethanol 2.5 mM alone): 363.73 ± 44.11 RFU
Maximum RFU (mean ± SD) ([3]; phenoxyethanol 3 mM alone): 401.68 ± 26.58 RFU and 441.76 ± 36.68 RFU and 224.26 ± 42.60 RFU and 257.93 RFU
Maximum RFU (mean ± SD) ([3]; phenoxyethanol 3.5 mM alone): 404.21 ± 42.32 RFU
Maximum RFU (mean ± SD) ([3]; phenoxyethanol 4 mM alone): 453.25 ± 34.18 RFU
P < 0.05 Compared to Vehicle ([4]; phenoxyethanol 0.5 mM): n/s
P < 0.05 Compared to Vehicle ([4]; phenoxyethanol 0.75 mM): n/s
P < 0.05 Compared to Vehicle ([4]; phenoxyethanol 1 mM): **
P < 0.05 Compared to Vehicle ([4]; phenoxyethanol 1.5 mM): **
P < 0.05 Compared to Vehicle ([4]; phenoxyethanol 2 mM): **
P < 0.05 Compared to Vehicle ([4]; phenoxyethanol 2.5 mM): **
P < 0.05 Compared to Vehicle ([4]; phenoxyethanol 3 mM): **
P < 0.05 Compared to Vehicle ([4]; phenoxyethanol 3.5 mM): **
P < 0.05 Compared to Vehicle ([4]; phenoxyethanol 4 mM): **
